What was measured:
[1] = target: T1, byGAPDH (baker's yeast GAPDH); assay: fluorescence titration, average of four read-outs (protein quenching, NADH quenching, FRET, anisotropy); parameters: species or system Saccharomyces cerevisiae; conditions: in terms of NADH binding sites on each tetramer
T1 construct: gene TDH3; purified in-house or purchased from Sigma; apo-enzyme
Source text: fluorescence titration, average of four read-outs (protein quenching, NADH quenching, FRET, anisotropy) on byGAPDH (baker's yeast GAPDH)

[2] = target: T2, rmGAPDH (rabbit muscle GAPDH) (Oryctolagus cuniculus, UniProt P46406); assay: as above; conditions: in terms of NADH binding sites on each tetramer; average over sites (enzyme with negative cooperativity)
T2 construct: natural full-length enzyme from rabbit muscle, homotetramer; purified in-house by established protocols or purchased from Sigma; apo-enzyme
T2 sequence (P46406 whole entry): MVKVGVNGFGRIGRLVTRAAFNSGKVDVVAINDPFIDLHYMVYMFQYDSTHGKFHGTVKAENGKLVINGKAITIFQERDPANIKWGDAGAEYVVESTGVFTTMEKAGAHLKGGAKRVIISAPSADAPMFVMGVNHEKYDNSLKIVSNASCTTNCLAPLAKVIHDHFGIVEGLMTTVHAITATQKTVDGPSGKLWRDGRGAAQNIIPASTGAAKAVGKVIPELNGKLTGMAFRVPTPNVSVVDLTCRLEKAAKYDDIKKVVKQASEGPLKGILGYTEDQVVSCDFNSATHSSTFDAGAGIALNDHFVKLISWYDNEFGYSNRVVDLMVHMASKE
Source text: fluorescence titration, average of four read-outs (protein quenching, NADH quenching, FRET, anisotropy) on rmGAPDH (rabbit muscle GAPDH)

NC(=O)C1=CN([C@@H]2O[C@H](COP(=O)(O)OP(=O)(O)OC[C@H]3O[C@@H](n4cnc5c(N)ncnc54)[C@H](O)[C@@H]3O)[C@@H](O)[C@H]2O)C=CC1 [NADH]
byGAPDH-NADH KD fluorescence measurements [1]: 8.2 ± 0.5 micro Molar
rmGAPDH-NADH KD fluorescence measurements [2]: 0.8 ± 0.06 micro Molar

From paper PMC7320145, “Substrate Channeling via a Transient Protein-Protein Complex: The case of D-Glyceraldehyde-3-Phosphate Dehydrogenase and L-Lactate Dehydrogenase” (Scientific Reports, 2020)
